Measured values reported in US20240325544A1, “CATIONIC LIPID FOR COVALENT MODIFICATION OF PEPTIDES” (PharmalN Corporation, priority 2023, published 2024).
Bridge positions count the residues as written; N and C are the ends. Square brackets hold non-standard residues; d marks the D form. Peptide text beside a SMILES is read from it. * marks the point of attachment. Palmitoyl = CCCCCCCCCCCCCCCC(=O)*; Dap = NC[C@H](N)C(=O)O; AEEA = NCCOCCOCC(=O)O

Test system: C57BL/6J mice
Test: Acute exacerbation of idiopathic pulmonary fibrosis (IPF-AE) model, bleomycin + LPS (FIG. 5)
Assay type: in vivo
Conditions: Bleo 1.0 mg/kg IT, LPS 0.025 mg/kg IT; 0.3 mg/kg SC day before, of and after LPS
Description: FIGS. 5A-5E: The effect of cationic alkyl modified CNP derivatives in inflammation status of acute exacerbation of idiopathic pulmonary fibrosis (IPF-AE). Error bars indicate standard error of the mean. Increased inflammatory status in lung, especially increase of neutrophils, MCP1, IL-6, are seen in IPF-AE. Its decrease indicates resolution of IPF-AE. […] After 3 weeks, mice were treated with LPS (0.025 mg/kg IT) and treated SC with SEQ ID NO: 29 or 31 at 0.3 mg/kg (0.1 μmol/kg) the day before, of, and after LPS treatment as shown in the diagram. Additionally, a normal control (NC) group without LPS/Bleo treatment, a Bleo group without LPS treatment, and a Control group without test article treatment were also included. […]
Animal care and treatment: Male C57BL/6J mice (6 weeks-old) were purchased from Kyudo (Saga, Japan) and maintained under a 12-hour light/12-hour dark cycle with free access to water and standard mouse diet (MF diet, Oriental Yeast Co., Ltd. Tokyo, Japan). […] Lung weight/body weight ratio increase is a commonly measured parameter that indicates lung damage. […] The expression of MPO was assessed by Image J (NIH, Bethesda, MD, USA). […] Macrophage chemoattractant protein-1 (MCP1) was measured by using ELISA kit (R&D SYSTEMS, Minneapolis M N). […] The gene expression levels of IL-6 were measured with qRT-PCR-analysis by using cDNA synthesis kit (Qiagen; Venlo, the Netherlands). […]

For `CCCCCCCCCCCCCCCC(=O)NCCOCCOCC(=O)NCCOCCOCC(=O)NCCOCCOCC(=O)N[C@@H](CN)C(=O)N[C@@H](CN)C(=O)NCC(=O)N[C@@H](CC(C)C)C(=O)N[C@@H](CO)C(=O)N[C@@H](CCCCN)C(=O)NCC(=O)N[C@H]1CSSC[C@@H](C(=O)O)NC(=O)CNC(=O)[C@H](CC(C)C)NC(=O)CNC(=O)[C@H](CO)NC(=O)[C@H](CCC(N)=O)NC(=O)[C@H](CO)NC(=O)CNC(=O)[C@H]([C@@H](C)CC)NC(=O)[C@H](CCCNC(=N)N)NC(=O)[C@H](CC(=O)O)NC(=O)[C@H](CC(C)C)NC(=O)[C@H](CCCCN)NC(=O)[C@H](CC(C)C)NC(=O)CNC(=O)[C@H](Cc2ccccc2)NC1=O` [SEQ ID NO: 31] ({Palmitoyl-AEEA-AEEA-AEEA}-[Dap][Dap]GLSKGCFGLKLDRIGSQSGLGC-OH; disulfide 8-24; C-terminus assumed), which MCP1 in lung is on record?
The MCP1 in lung was “significant decrease of MCP1”.
